No end group written: not given here. *: point of attachment. Oleoyl = CCCCCCCC/C=C\CCCCCCCC(=O)*; Palmitoyl = CCCCCCCCCCCCCCCC(=O)*
Tests used:
[1] = test system: Collagen I; assay: Collagen I in supernatant of normal human skin fibroblasts, Elisa; format: cell-based; details: for Collagen I: Percentage of variation with respect to solvent: 3 × 10E−4% ascorbic acid, 3 days; for collagen I stimulation (in words): alone or in combination; for collagen I stimulation (in words) / effect on biomolecule synthesis under these experimental conditions (in words): Table 1 conditions
Method: In generating the data in Table 1, normal human skin fibroblasts were cultivated in 24 well-plates in DMEM with 10% of Fetal Calf Serum (“FCS”) during 24 h, then rinsed. The cells then received the products to be tested in a medium DMEM without FCS (“Fetal Calf Serum”) containing ascorbic acid. The contact of cells with product was carried out during 3 days, then supernatants was taken and frozen. Each test includes a negative control without solvent, a control solvent and a positive control (10^−6% of Transforming Growth Factor-β (“TGF-β”)). Each determination was carried out n=3. Several repetitions independent of the tests can be made. Assaying of the interesting molecules was carried out by Elisa (Collagen I & IV; Fibronectine) or by a colorimetric method (hyaluronic acid).
(§1) Normal human skin fibroblasts are cultivated in 24 well-plates in DMEM with 10% of FCS during 24 h, then rinsed. The cells then received the products to be tested in a medium DMEM without FCS containing ascorbic acid. The contact of cells with product was carried out during 3 days, then supernatants are taken and frozen. Each test included a negative control without solvent, a control solvent and a positive control (10^E-6% of TGF-β). Each determination was carried out n=3. Several repetitions independent of the tests were made. Assaying of the interesting molecules was carried out by Elisa (Collagen I & IV; Fibronectine) and by a calorimetric method (hyaluronic acid).

[2] = test system: Fibronectin; assay: Fibronectin in supernatant of normal human skin fibroblasts, Elisa; format: cell-based; details: 3 × 10E−4% ascorbic acid, 3 days
Method: (§2) In generating the data in Table 1, normal human skin fibroblasts were cultivated in 24 well-plates in DMEM with 10% of Fetal Calf Serum (“FCS”) during 24 h, then rinsed. The cells then received the products to be tested in a medium DMEM without FCS (“Fetal Calf Serum”) containing ascorbic acid. The contact of cells with product was carried out during 3 days, then supernatants was taken and frozen. Each test includes a negative control without solvent, a control solvent and a positive control (10^−6% of Transforming Growth Factor-β (“TGF-β”)). Each determination was carried out n=3. Several repetitions independent of the tests can be made. Assaying of the interesting molecules was carried out by Elisa (Collagen I & IV; Fibronectine) or by a colorimetric method (hyaluronic acid). […] Higher concentrations were not tested because of cytotoxicity, and the other biomolecules were not assayed (n.t.=not tested) because of the lack of initial response in collagen I stimulation, which is the essential, primary parameter.
as §1

[3] = test system: Collagen IV; assay: Collagen IV in supernatant of normal human skin fibroblasts, Elisa; format: cell-based; details: 3 × 10E−4% ascorbic acid, 3 days
Method: as §2, §1

[4] = test system: Hyaluronic Acid; assay: Hyaluronic acid in supernatant of normal human skin fibroblasts, colorimetric method; format: cell-based; details: 3 × 10E−4% ascorbic acid, 3 days
Method: as §2, §1

[5] = test system: collagen; details: background statement on EYELISS components; cited from earlier work
[6] = test system: collagen; assay: Increase in synthesis of collagen (in vitro), fibroblasts of human skin, ELISA; format: cell-based; details: 72 hours
Method: Fibroblasts of human skin are incubated for 72 hours in two culture mediums enriched in vitamin C (1.5 and 15 ppm), in the presence of the peptide N-palmitoyl-Gly-Gln-Pro-Arg (SEQ ID NO: 3) at two different concentrations, 2.5 ppm and 3.6 ppm. After this incubation, the media is collected and cell viability is evaluated by MTT assay. The measurement of collagen is then carried out by ELISA in each cell lysate. Tests were done in triplicate.
In parallel, negative controls should be carried out under the same conditions, but in the absence of the peptides.
The following results, shown in Table 2, give the increase of collagen synthesis compared to the results obtained in the blank tests (without peptide): […]

## Oleoyl-RGDS [oleoyl derivative of RGDS=Arg-Gly-Asp-Ser]
[1]; 1 ppm
  Collagen I: Percentage of variation with respect to solvent: −7%
[1]; 3 ppm
  Collagen I: Percentage of variation with respect to solvent: −2%
[1]
  collagen I stimulation (in words): do not show collagen I stimulation

## Acetyl-YGG
[1]; 1 ppm
  Collagen I: Percentage of variation with respect to solvent: −2%
[1]; 3 ppm
  Collagen I: Percentage of variation with respect to solvent: +5%
[1]; 5 ppm
  Collagen I: Percentage of variation with respect to solvent: −11%
[1]
  collagen I stimulation (in words): do not show collagen I stimulation

## Pal-YGGF (Palmitoyl-YGGF) [palmitoyl derivative of YGGF=Tyr-Gly-Gly-Phe, fragment of enkephaline]
[1]; 1 ppm
  Collagen I: Percentage of variation with respect to solvent: +5%
[1]; 3 ppm
  Collagen I: Percentage of variation with respect to solvent: −6%
[1]; 5 ppm
  Collagen I: Percentage of variation with respect to solvent: +4%
[1]
  collagen I stimulation (in words): do not show collagen I stimulation

## N-Palmitoyl-Lys-Thr-Thr-Lys-Ser (Palmitoyl-KTTKS) [Pal KTTKS, commercially successful pentapeptide, MATRIXYL, available from SEDERMA, reference compound]
[2]; 1 ppm
  Fibronectin: Percentage of variation with respect to solvent: +24%
[2]; 2 ppm
  Fibronectin: Percentage of variation with respect to solvent: +20%
[2]; 4 ppm
  Fibronectin: Percentage of variation with respect to solvent: +74%
[2]; 8 ppm
  Fibronectin: Percentage of variation with respect to solvent: +100%
[3]; 1 ppm
  Collagen IV: Percentage of variation with respect to solvent: +6%
[3]; 2 ppm
  Collagen IV: Percentage of variation with respect to solvent: +12%
[3]; 4 ppm
  Collagen IV: Percentage of variation with respect to solvent: +15%
[3]; 8 ppm
  Collagen IV: Percentage of variation with respect to solvent: +22%
[1]; 1 ppm
  Collagen I: Percentage of variation with respect to solvent: +8%
[1]; 2 ppm
  Collagen I: Percentage of variation with respect to solvent: +30%
[1]; 4 ppm
  Collagen I: Percentage of variation with respect to solvent: +48%
[1]; 8 ppm
  Collagen I: Percentage of variation with respect to solvent: +93%
[4]; 1 ppm
  Hyaluronic Acid: Percentage of variation with respect to solvent: +3%
[4]; 2 ppm
  Hyaluronic Acid: Percentage of variation with respect to solvent: +26%
[4]; 4 ppm
  Hyaluronic Acid: Percentage of variation with respect to solvent: +28%
[4]; 8 ppm
  Hyaluronic Acid: Percentage of variation with respect to solvent: +31%

## Val-Trp
[5]
  collagen stimulating activity (in words): no significant collagen stimulating activity

## Oleoyl-RGD
[1]; 1 ppm
  Collagen I: Percentage of variation with respect to solvent: +5%
[1]; 3 ppm
  Collagen I: Percentage of variation with respect to solvent: −3%
[1]
  collagen I stimulation (in words): do not show collagen I stimulation

## N-Palmitoyl-Gly-His-Lys [Pal GHK]
[2]; 1 ppm
  Fibronectin: Percentage of variation with respect to solvent: +8%
[2]; 3 ppm
  Fibronectin: Percentage of variation with respect to solvent: +2%
[2]; 5 ppm
  Fibronectin: Percentage of variation with respect to solvent: −15%
[2]; 7.3 ppm
  Fibronectin: Percentage of variation with respect to solvent: +13%
[3]; 1 ppm
  Collagen IV: Percentage of variation with respect to solvent: +5%
[3]; 3 ppm
  Collagen IV: Percentage of variation with respect to solvent: −4%
[3]; 5 ppm
  Collagen IV: Percentage of variation with respect to solvent: +6%
[3]; 7.3 ppm
  Collagen IV: Percentage of variation with respect to solvent: −9%
[1]; 1 ppm
  Collagen I: Percentage of variation with respect to solvent: +9%
[1]; 3 ppm
  Collagen I: Percentage of variation with respect to solvent: −11%
[1]; 5 ppm
  Collagen I: Percentage of variation with respect to solvent: +11%
[1]; 5 ppm, listed as N-Palmitoyl-Gly-His-Lys
  Collagen I: Percentage of variation with respect to solvent: +11%
[1]; 7.3 ppm
  Collagen I: Percentage of variation with respect to solvent: −9%
[1]; 7.3 ppm, listed as tripeptide
  Collagen I: Percentage of variation with respect to solvent: reduction in synthesis
[1]
  effect on biomolecule synthesis under these experimental conditions (in words): essentially no effect
[4]; 1 ppm
  Hyaluronic Acid: Percentage of variation with respect to solvent: +3%
[4]; 3 ppm
  Hyaluronic Acid: Percentage of variation with respect to solvent: +11%
[4]; 5 ppm
  Hyaluronic Acid: Percentage of variation with respect to solvent: 0%
[4]; 7.3 ppm
  Hyaluronic Acid: Percentage of variation with respect to solvent: −1%

## N-Palmitoyl-Gly-Gln-Pro-Arg (Palmitoyl-GQPR) [Pal GQPR, 500 ppm solution sold as RIGIN by SEDERMA]
[2]; 0.5 ppm
  Fibronectin: Percentage of variation with respect to solvent: +1%
[2]; 1.5 ppm
  Fibronectin: Percentage of variation with respect to solvent: +15%
[2]; 2.5 ppm
  Fibronectin: Percentage of variation with respect to solvent: +35%
[2]; 3.64 ppm
  Fibronectin: Percentage of variation with respect to solvent: +56%
[3]; 0.5 ppm
  Collagen IV: Percentage of variation with respect to solvent: +5%
[3]; 1.5 ppm
  Collagen IV: Percentage of variation with respect to solvent: −8%
[3]; 2.5 ppm
  Collagen IV: Percentage of variation with respect to solvent: −5%
[3]; 3.64 ppm
  Collagen IV: Percentage of variation with respect to solvent: −14%
[1]; 0.5 ppm
  Collagen I: Percentage of variation with respect to solvent: +4%
[1]; 1.5 ppm
  Collagen I: Percentage of variation with respect to solvent: −1%
[1]; 2.5 ppm
  Collagen I: Percentage of variation with respect to solvent: +19%
[1]; 2.5 ppm, listed as N-Palmitoyl-Gly-Gln-Pro-Arg
  Collagen I: Percentage of variation with respect to solvent: +19%
[1]; 3.64 ppm
  Collagen I: Percentage of variation with respect to solvent: +65%
[1]; 3.64 ppm, listed as tetrapeptide
  Collagen I: Percentage of variation with respect to solvent: +65%
[1]
  effect on biomolecule synthesis under these experimental conditions (in words): stimulating effect
[4]; 0.5 ppm
  Hyaluronic Acid: Percentage of variation with respect to solvent: −4%
[4]; 1.5 ppm
  Hyaluronic Acid: Percentage of variation with respect to solvent: +9%
[4]; 2.5 ppm
  Hyaluronic Acid: Percentage of variation with respect to solvent: −13%
[4]; 3.64 ppm
  Hyaluronic Acid: Percentage of variation with respect to solvent: −1%
[6]; peptide 2.5 ppm, Vitamin C 1.5 ppm
  increase of collagen synthesis compared to blank tests (without peptide): +10%
[6]; peptide 2.5 ppm, Vitamin C 15 ppm
  increase of collagen synthesis compared to blank tests (without peptide): +27%
[6]; peptide 3.6 ppm, Vitamin C 1.5 ppm
  increase of collagen synthesis compared to blank tests (without peptide): +29%
[6]; peptide 3.6 ppm, Vitamin C 15 ppm
  increase of collagen synthesis compared to blank tests (without peptide): +42%

## Transforming Growth Factor-β [TGF-β, reference compound]
[2]; 10^E−6%
  Fibronectin: Percentage of variation with respect to solvent: +176%
[3]; 10^E−6%
  Collagen IV: Percentage of variation with respect to solvent: +4%
[4]; 10^E−6%
  Hyaluronic Acid: Percentage of variation with respect to solvent: +43%

Reference: patent US6974799B2, “Compositions containing mixtures of tetrapeptides and tripeptides” (Sederma S.A.S., priority 2003, dated 2005)
